Legend:
Conditions in all cases: Compound concentration 1.0 uM
[1] = target: Serine/threonine-protein kinase A-Raf (Homo sapiens) (UniProt P10398)
[2] = target: T1, Aurora kinase A (Homo sapiens) (UniProt O14965)
T1 sequence (whole entry): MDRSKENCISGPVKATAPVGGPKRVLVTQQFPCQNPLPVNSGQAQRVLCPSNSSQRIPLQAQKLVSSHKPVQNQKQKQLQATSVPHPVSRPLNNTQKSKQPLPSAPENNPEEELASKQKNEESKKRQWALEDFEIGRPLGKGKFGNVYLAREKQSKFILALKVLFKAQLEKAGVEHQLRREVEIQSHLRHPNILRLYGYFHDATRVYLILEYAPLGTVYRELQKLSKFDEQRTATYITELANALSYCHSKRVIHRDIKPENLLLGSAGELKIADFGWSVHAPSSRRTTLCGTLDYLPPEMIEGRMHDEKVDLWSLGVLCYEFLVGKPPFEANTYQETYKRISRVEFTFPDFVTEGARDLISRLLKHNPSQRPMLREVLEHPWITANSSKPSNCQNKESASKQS

[3] = target: T2, Cyclin-dependent kinase-like 2 (Homo sapiens) (UniProt Q92772)
T2 sequence (whole entry): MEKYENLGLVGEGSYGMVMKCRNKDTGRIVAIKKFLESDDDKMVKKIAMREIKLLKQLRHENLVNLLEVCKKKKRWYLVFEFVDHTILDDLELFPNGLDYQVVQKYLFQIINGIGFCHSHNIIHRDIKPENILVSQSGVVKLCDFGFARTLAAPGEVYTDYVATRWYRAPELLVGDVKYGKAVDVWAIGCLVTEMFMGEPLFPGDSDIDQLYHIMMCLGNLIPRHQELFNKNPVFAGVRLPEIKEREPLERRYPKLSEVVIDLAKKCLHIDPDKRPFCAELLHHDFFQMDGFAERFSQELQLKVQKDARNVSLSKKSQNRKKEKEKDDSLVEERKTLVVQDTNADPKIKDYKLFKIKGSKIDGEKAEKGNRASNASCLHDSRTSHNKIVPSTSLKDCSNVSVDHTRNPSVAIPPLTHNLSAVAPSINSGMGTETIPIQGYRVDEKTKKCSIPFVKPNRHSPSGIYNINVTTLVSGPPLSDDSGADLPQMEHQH

[4] = target: Tyrosine-protein kinase HCK (Homo sapiens) (UniProt P08631)
[5] = target: T3, Mitogen-activated protein kinase kinase kinase 3 (Homo sapiens) (UniProt Q99759)
T3 sequence (whole entry): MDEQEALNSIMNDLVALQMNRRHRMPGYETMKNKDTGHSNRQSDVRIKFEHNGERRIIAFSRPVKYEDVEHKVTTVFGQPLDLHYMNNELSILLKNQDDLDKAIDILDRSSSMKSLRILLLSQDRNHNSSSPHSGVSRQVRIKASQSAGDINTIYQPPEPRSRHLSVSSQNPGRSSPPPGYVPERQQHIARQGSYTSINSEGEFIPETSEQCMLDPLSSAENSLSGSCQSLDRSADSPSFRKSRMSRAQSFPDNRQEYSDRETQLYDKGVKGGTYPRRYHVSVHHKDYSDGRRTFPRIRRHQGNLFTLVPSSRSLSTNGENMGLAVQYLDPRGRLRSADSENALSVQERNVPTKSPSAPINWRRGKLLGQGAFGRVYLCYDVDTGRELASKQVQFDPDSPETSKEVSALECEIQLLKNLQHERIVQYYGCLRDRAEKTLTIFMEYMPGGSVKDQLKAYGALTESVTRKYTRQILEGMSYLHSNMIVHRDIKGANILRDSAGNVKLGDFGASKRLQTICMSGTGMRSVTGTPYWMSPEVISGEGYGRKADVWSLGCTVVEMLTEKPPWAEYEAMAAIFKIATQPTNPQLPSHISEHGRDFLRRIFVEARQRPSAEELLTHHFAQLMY

[6] = target: MAPK/MAK/MRK overlapping kinase (Homo sapiens) (UniProt Q9UQ07)
[7] = target: Ribosomal protein S6 kinase alpha-4 (Homo sapiens) (UniProt O75676)
[8] = target: Serine/threonine-protein kinase MARK2 (Homo sapiens) (UniProt Q7KZI7)
[9] = target: T4, Dual specificity protein kinase TTK (Homo sapiens) (UniProt P33981)
T4 sequence (whole entry): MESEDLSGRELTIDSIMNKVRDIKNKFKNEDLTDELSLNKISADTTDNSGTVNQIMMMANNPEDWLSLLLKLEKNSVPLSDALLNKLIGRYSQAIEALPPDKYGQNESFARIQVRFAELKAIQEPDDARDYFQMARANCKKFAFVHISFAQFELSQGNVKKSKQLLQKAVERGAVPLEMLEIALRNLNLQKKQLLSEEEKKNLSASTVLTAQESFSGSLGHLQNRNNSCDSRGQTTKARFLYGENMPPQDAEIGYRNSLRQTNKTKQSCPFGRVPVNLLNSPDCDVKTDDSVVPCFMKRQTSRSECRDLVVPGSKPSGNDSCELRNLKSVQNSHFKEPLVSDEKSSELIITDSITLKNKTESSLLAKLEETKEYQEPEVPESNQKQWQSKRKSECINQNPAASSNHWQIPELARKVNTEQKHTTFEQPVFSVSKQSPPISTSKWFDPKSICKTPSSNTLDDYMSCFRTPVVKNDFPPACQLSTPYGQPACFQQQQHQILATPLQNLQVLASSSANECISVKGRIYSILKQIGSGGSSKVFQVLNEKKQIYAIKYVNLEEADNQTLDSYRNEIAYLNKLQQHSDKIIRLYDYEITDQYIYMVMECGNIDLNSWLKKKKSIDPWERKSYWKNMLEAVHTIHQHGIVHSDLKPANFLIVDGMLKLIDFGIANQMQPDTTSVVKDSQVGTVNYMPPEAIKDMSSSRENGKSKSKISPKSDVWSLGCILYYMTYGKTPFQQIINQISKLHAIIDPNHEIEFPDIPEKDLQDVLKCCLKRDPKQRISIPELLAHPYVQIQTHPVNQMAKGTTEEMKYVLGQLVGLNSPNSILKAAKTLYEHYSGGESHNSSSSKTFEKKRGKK

Measured: % residual kinase activity

Chain of Serine/threonine-protein kinase A-Raf (Homo sapiens) (P10398 whole entry): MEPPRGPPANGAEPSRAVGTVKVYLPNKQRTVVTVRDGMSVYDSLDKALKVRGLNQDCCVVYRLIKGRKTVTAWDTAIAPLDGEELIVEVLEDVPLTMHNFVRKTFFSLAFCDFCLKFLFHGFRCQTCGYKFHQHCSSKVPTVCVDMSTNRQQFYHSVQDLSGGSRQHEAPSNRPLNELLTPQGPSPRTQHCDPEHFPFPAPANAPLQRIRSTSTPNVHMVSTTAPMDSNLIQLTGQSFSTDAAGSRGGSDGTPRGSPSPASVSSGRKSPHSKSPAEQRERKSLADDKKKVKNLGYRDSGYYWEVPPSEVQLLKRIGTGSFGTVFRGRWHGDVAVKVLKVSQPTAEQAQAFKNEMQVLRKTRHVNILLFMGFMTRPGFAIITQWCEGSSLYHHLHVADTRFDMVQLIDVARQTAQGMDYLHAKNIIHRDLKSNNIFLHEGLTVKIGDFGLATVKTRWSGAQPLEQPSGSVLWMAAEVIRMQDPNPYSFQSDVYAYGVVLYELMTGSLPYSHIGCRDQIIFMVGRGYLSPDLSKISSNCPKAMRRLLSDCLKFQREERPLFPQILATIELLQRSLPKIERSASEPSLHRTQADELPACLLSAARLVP
Chain of Ribosomal protein S6 kinase alpha-4 (Homo sapiens) (O75676 whole entry, looked up): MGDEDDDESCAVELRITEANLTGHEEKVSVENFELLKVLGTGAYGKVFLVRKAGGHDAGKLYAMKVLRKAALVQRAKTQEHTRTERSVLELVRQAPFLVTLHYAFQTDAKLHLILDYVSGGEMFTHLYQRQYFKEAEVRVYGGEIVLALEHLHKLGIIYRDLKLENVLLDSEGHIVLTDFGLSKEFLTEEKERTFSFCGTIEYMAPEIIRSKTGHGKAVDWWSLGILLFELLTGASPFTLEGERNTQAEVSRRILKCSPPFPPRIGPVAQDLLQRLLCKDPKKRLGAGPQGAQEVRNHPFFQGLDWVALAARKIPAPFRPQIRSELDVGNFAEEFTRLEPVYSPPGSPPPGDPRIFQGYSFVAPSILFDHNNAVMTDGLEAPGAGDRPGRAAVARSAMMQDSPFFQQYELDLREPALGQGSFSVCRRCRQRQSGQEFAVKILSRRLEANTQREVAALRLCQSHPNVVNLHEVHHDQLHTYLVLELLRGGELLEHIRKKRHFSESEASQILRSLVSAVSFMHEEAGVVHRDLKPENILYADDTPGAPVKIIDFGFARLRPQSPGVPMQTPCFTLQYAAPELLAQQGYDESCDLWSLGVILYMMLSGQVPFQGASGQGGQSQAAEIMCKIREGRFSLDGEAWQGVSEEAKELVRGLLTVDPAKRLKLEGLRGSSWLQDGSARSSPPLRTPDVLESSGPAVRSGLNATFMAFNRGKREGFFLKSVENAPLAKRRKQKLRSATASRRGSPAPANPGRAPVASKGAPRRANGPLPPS
Chain of Tyrosine-protein kinase HCK (Homo sapiens) (P08631 2-526 limits assumed): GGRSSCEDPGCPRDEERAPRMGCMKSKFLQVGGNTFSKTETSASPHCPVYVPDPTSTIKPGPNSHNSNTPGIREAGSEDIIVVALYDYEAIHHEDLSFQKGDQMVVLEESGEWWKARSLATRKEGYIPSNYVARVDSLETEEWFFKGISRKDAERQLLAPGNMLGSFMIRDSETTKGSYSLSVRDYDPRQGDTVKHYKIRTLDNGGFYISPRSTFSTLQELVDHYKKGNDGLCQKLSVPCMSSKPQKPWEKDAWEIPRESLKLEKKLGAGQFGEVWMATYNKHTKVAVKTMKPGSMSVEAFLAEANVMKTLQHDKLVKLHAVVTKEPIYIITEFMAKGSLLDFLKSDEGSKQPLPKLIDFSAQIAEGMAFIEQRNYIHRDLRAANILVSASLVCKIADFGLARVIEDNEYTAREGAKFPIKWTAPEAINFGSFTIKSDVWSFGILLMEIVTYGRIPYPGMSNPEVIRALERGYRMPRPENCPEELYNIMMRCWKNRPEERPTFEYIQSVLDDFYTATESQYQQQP
Chain of Serine/threonine-protein kinase MARK2 (Homo sapiens) (Q7KZI7 whole entry): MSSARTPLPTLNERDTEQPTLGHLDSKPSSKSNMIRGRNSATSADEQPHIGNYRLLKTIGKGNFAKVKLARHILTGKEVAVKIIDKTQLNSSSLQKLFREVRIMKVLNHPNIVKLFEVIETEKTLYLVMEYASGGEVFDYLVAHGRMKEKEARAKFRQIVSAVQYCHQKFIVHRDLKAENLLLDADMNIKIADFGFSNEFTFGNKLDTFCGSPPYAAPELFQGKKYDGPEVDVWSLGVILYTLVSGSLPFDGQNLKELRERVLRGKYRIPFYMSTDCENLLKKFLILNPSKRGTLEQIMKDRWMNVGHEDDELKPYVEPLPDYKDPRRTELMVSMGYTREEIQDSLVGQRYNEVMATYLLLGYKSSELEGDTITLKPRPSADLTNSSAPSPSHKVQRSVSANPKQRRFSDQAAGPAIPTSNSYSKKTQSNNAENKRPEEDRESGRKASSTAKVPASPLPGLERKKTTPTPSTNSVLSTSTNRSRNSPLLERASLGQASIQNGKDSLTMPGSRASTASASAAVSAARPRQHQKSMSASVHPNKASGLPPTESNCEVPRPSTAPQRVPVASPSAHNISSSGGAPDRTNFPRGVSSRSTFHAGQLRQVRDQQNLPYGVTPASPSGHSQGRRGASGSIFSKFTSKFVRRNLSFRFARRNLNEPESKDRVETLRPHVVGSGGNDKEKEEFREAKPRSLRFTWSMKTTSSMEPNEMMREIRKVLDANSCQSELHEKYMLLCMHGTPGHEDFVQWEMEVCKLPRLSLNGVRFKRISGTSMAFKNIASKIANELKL
Chain of MAPK/MAK/MRK overlapping kinase (Homo sapiens) (Q9UQ07 whole entry): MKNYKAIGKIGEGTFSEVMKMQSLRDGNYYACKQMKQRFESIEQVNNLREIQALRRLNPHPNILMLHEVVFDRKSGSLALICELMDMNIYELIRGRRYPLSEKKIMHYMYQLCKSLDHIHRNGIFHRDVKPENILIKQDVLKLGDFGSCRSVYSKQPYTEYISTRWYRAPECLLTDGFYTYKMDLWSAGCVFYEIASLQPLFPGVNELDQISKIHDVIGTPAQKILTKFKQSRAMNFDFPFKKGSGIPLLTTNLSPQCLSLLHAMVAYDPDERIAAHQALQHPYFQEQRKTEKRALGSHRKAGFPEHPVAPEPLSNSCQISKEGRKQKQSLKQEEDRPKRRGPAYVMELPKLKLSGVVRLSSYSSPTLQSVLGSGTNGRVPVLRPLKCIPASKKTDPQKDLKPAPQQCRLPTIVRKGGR

CN1CCN(c2cnc3c(C4CCN(C(=O)c5ccc(OC(F)(F)F)cc5N)CC4)ncnc3c2)CC1 [BAY-885]
inactive: [1] 96% | [2] 109% | [3] 96% | [4] 107% | [5] 94% | [6] 94% | [7] 107% | [8] 113% | [9] 93%
